Experimental data: US9586986B2, “Substituted 7-deazapurine ribonucleosides for therapeutic uses” (Institute of Organic Chemistry and Biochemistry ASCR, v.v.i., priority 2014, dated 2017)

Experiments:
Format in all cases: cell-based
[1] = system: A549; experiment: Cytostatic/cytotoxic MTT assay, A549; conditions: Homo sapiens, A549; 72 h incubation; read-out: MTT, IC50 A549
Text: (§1) Unless otherwise stated, all cells were purchased from the […] (ATCC). The CCRF-CEM line is derived from T lymphoblastic leukemia, evincing high chemosenzitivity, K562 represent cells from a […] patient sample with bcr-abl translocation, HCT116 is colorectal tumor cell line and its p53 gene knock-down counterpart (HCT116p53−/−, Horizon Discovery, UK) is a model of human cancers with p53 inactivation frequently associated with poor prognosis, A549 cell line is lung adenocarcinoma. The daunorubicin resistant subline of CCRF-CEM cells (CEM-DNR bulk) and paclitaxel resistant subline K562-TAX were selected in our laboratory by cultivation of maternal cell lines in increasing concentrations of daunorubicine or paclitaxel, respectively. The CEM-DNR cells overexpress mrp-1 and mdr-1 genes, while K562-TAX cells overexpress mdr-1 only. Both proteins belong to the family of ABC transporters and are involved in the primary and/or acquired multidrug resistance phenomenon (ref.: Gottesman, M. M.; Fojo, T.; Bates, S. E. Multidrug resistance in cancer: role of ATP-dependent transporters. Nat. Rev. Cancer. 2002, 2, 48-58. (b) Noskova, V.; Dzubak, P.; Kuzmina, G.; Ludkova, A.; Stehlik, D.; Trojanec, R.; Janostakova, A.; Korinkova, G.; Mihal, V.; Hajduch, M. In vitro chemoresistance profile and expression/function of MDR associated proteins in resistant cell lines derived from CCRF-CEM, K562, A549 and MDA MB 231 parental cells. Neoplasma 2002, 49, 418-425). Non-malignant MRC-5 and BJ cells, derived from normal human fibroblasts, were used as controls. The cells were maintained in Nunc/Corning 80 cm^2 plastic tissue culture flasks and cultured in cell culture medium (DMEM/RPMI 1640 with 5 g/L glucose, 2 mM glutamine, 100 U/mL penicillin, 100 µg/mL streptomycin, 10% fetal calf serum, and NaHCO3). Cell suspensions were prepared and diluted according to the particular cell type and the expected target cell density (25,000-30,000 cells/well based on cell growth characteristics). Cells were added by pipette (80 L) into 96-well microtiter plates. Inoculates were allowed a pre-incubation period of 24 h at 37° C. and 5% CO2 for stabilization. Four-fold dilutions, in 20-L aliquots, of the intended test concentration were added to the microtiter plate walls at time zero. All test compound concentrations were examined in duplicate. Incubation of the cells with the test compounds lasted for 72 h at 37° C., in a 5% CO2 atmosphere at 100% humidity. At the end of the incubation period, the cells were assayed using MTT. Aliquots (10 L) of the MTT stock solution (5 mg/ml) were pipetted into each well and incubated for another 1-4 h. After this incubation period the formazan produced was dissolved by addition of 100 µL/well of 10% aq SDS (pH 5.5), followed by a further incubation at 37° C. overnight. The optical density was measured at 540 nm. The IC50 value, the drug concentration inhibiting the cell growth by 50%, was calculated from appropriate dose-response curves.
(§2) In vitro cytotoxic/cytostatic activity final nucleosides 1-5 was initially evaluated against […] cell lines derived from human solid tumors including lung (A549 cells) and colon (HCT116 and HCT116p53−/−) carcinomas, as well as leukemia cell lines (CCRF-CEM, CEM-DNR, K562 and K562-TAX) and, for comparison, non-malignant BJ and MRC-5 fibroblasts. Concentrations inhibiting the cell growth by 50% (IC50) were determined using a quantitative metabolic staining with 3-(4,5-dimethylthiazol-2-yl)-2,5-diphenyltetrazolium bromide (MTT) (ref.: Denizot, F.; Lang, R. Rapid colorimetric assay for cell growth and survival: Modifications to the tetrazolium dye procedure giving improved sensitivity and reliability. J. Immunol. Meth. 1986, 89, 271-277) following a 3-day treatment.

[2] = system: BJ; experiment: Cytostatic/cytotoxic MTT assay, BJ fibroblasts; conditions: Homo sapiens, non-malignant fibroblasts, 72 h, read-out: MTT, IC50 BJ
Text: as §1, §2

[3] = system: Huh-7 cells harboring replicon 1B; experiment: Cytotoxicity in replicon 1B cells; conditions: HCV subtype 1B replicon
Description: (§3) Compounds were also tested in Huh-7 cells harboring sub-genomic reporter replicons derived from HCV subtypes 1B and 2A (ref.: Stuyver, L. J.; Whitaker, T.; McBrayer, T. R.; Hernandez-Santiago, B. I.; Lostia, S.; Tharnish, P. M.; Ramesh, M.; Chu, C. K.; Jordan, R.; Shi, J. X.; Rachakonda, S.; Watanabe, K. A.; Otto, M. J.; Schinazi, R. F. Antimicrob. Agents Chemother. 2003, 47, 244-254).

[4] = system: MRC-5; experiment: Cytostatic/cytotoxic MTT assay, MRC-5 fibroblasts; conditions: Homo sapiens, MRC5; non-malignant fibroblasts, 72 h; read-out: MTT, IC50 MRC-5
Text: as §1, §2

[5] = system: CCRF-CEM; experiment: Cytostatic/cytotoxic MTT assay, CCRF-CEM; conditions: Homo sapiens, 72 h incubation, read-out: MTT, IC50 CCRF-CEM
Text: as §1, §2

[6] = system: CEM-DNR-bulk; experiment: Cytostatic/cytotoxic MTT assay, CEM-DNR-bulk; conditions: Homo sapiens; daunorubicin resistant subline, 72 h; read-out: MTT, IC50 CEM-DNR-bulk
Text: as §1, §2
(§4) Multidrug resistance is a major therapeutic problem in cancer chemotherapy. […]

[7] = system: HCT116; experiment: Cytostatic/cytotoxic MTT assay, HCT116; conditions: Homo sapiens, HCT-116; 72 h incubation; read-out: MTT, IC50 HCT116
Text: as §1, §2, §4

[8] = system: HepG2; experiment: XTT cytotoxicity assay, HepG2; conditions: Homo sapiens, HepG2; 72 h incubation; read-out: XTT, IC50 HepG2
Description: HL-60, Hela S3 and HepG2 cell lines (ATCC) were grown in RPMI-1640 or DMEM medium supplemented with 10% fetal calf serum, […] of streptomycin, 200 U/mL of penicillin G and 4 mM glutamine in a humidified atmosphere containing 5% CO2 at 37° C. Sensitivity of these cell lines to the synthesized compounds was assessed with the use of XTT cell proliferation kit II (Roche Diagnostics GmbH, Mannheim, Germany) according to the manufacturer's instructions. Briefly, cells were seeded in a 96-well plate at a density of 10,000 cells per well (90 μL). After 24 h, 10 μL of the tested compounds were added to the culture media at desired concentration range and incubated for 72 h. After that 50 μL of the XTT solution was added (1 mg/mL XTT+0.383 mg/mL N-methyl dibenzopyrazine methyl sulfate). The absorbance was recorded at 495 nm following a 2 h-incubation with the dye. IC50 values were determined by non-linear regression method using GraphPad Prism version 5.00 for Windows (GraphPad Software, La Jolla, Calif., USA).

[9] = system: Huh-7 cells harboring replicon 2A; experiment: Cytotoxicity in replicon 2A cells; conditions: HCV subtype 2A replicon
Description: as §3

Structure (SMILES)	IC50 [1]	IC50 [2]	CC50 [3]	IC50 [4]	IC50 [5]	IC50 [6]	IC50 [7]	IC50 [8]	CC50 [9]
CNc1ncnc2c1c(-c1ccco1)cn2[C@@H]1O[C@H](CO)[C@@H](O)[C@H]1O [Compound 3a, 5-(Furan-2-yl)-4-methylamino-7-(β-D-ribofuranosyl)-7H-pyrrolo[2,3-d]pyrimidine]	2.57 µM	5.04 µM	> 44 µM	90.8 µM	0.18 µM	> 20 µM	0.23 µM	0.85 µM	> 44 µM
C#Cc1cn([C@@H]2O[C@H](CO)[C@@H](O)[C@H]2O)c2ncnc(C)c12 [Compound 5g, 5-Ethynyl-4-methyl-7-(β-D-ribofuranosyl)-7H-pyrrolo[2,3-d]pyrimidine]	19.2 µM	0.05 µM	> 44 µM	1.44 µM	5.6 µM	0.16 µM	> 20 µM	0.29 µM	> 44 µM
CSc1ncnc2c1c(-c1ccoc1)cn2[C@@H]1O[C@H](CO)[C@@H](O)[C@H]1O [Compound 2b, 5-(Furan-3-yl)-4-methylsulfanyl-7-(β-D-ribofuranosyl)-7H-pyrrolo[2,3-d]pyrimidine]	0.28 µM	98.8 µM	> 44 µM	> 100 µM	14.2 µM	> 20 µM	0.04 µM	> 15 µM	> 44 µM
CN(C)c1ncnc2c1c(-c1cc3ccccc3o1)cn2[C@@H]1O[C@H](CO)[C@@H](O)[C@H]1O [Compound 4f, 5-(Benzofuran-2-yl)-4-dimethylamino-7-(β-D-ribofuranosyl)-7H-pyrrolo[2,3-d]pyrimidine]	> 20 µM	> 100 µM	> 44 µM	> 100 µM	> 20 µM	> 20 µM	> 20 µM	> 20 µM	> 44 µM
CN(C)c1ncnc2c1c(-c1ccoc1)cn2[C@@H]1O[C@H](CO)[C@@H](O)[C@H]1O [Compound 4b, 4-Dimethylamino-5-(furan-3-yl)-7-(β-D-ribofuranosyl)-7H-pyrrolo[2,3-d]pyrimidine]	> 20 µM	99.2 µM	> 44 µM	> 100 µM	13.3 µM	> 20 µM	> 20 µM	12.5 µM	> 44 µM
COc1ncnc2c1c(-c1cc3ccccc3o1)cn2[C@@H]1O[C@H](CO)[C@@H](O)[C@H]1O [Compound 1f, 5-(Benzofuran-2-yl)-4-methoxy-7-(β-D-ribofuranosyl)-7H-pyrrolo[2,3-d]pyrimidine]	17.7 µM	22.4 µM	> 44 µM	65.6 µM	5.37 µM	10.8 µM	13.8 µM	> 20 µM	> 44 µM
CN(C)c1ncnc2c1ccn2[C@@H]1O[C@H](CO)[C@@H](O)[C@H]1O [RC4, reference compound]	> 20 µM	5.3 µM	> 44 µM	58.2 µM	0.63 µM	2.6 µM	18.4 µM	1.81 µM	> 44 µM
COc1ncnc2c1c(-c1ccsc1)cn2[C@@H]1O[C@H](CO)[C@@H](O)[C@H]1O [Compound 1d, 4-Methoxy-7-(β-D-ribofuranosyl)-5-(thiophen-3-yl)-7H-pyrrolo[2,3-d]pyrimidine]	5.17 µM	64.3 µM	> 44 µM	75.3 µM	2.57 µM	7.64 µM	0.12 µM	0.43 µM	> 44 µM
CNc1ncnc2c1ccn2[C@@H]1O[C@H](CO)[C@@H](O)[C@H]1O [RC3, reference compound]	> 20 µM	91.4 µM	> 44 µM	97.8 µM	> 20 µM	4.89 µM	> 20 µM	> 20 µM	> 44 µM
C#Cc1cn([C@@H]2O[C@H](CO)[C@@H](O)[C@H]2O)c2ncnc(OC)c12 [Compound 1g, 5-Ethynyl-4-methoxy-7-(β-D-ribofuranosyl)-7H-pyrrolo[2,3-d]pyrimidine]	8.16 µM	98.4 µM	> 44 µM	> 100 µM	> 20 µM	3.49 µM	4.06 µM	12.7 µM	> 44 µM
CN(C)c1ncnc2c1c(-c1ccsc1)cn2[C@@H]1O[C@H](CO)[C@@H](O)[C@H]1O [Compound 4d, 4-Dimethylamino-7-(β-D-ribofuranosyl)-5-(thiophen-3-yl)-7H-pyrrolo[2,3-d]pyrimidine]	> 20 µM	> 100 µM	> 44 µM	> 100 µM	3.48 µM	> 20 µM	> 20 µM	> 20 µM	> 44 µM
COc1ncnc2c1ccn2[C@@H]1O[C@H](CO)[C@@H](O)[C@H]1O [RC1, reference compound]	> 20 µM	> 100 µM	> 44 µM	> 100 µM	> 20 µM	> 20 µM	> 20 µM	> 20 µM	> 44 µM
